{"source": "ChEMBL document CHEMBL1764972", "about": "“Phomalevones A-C: dimeric and pseudodimeric polyketides from a fungicolous Hawaiian isolate of Phoma sp. (Cucurbitariaceae)” (J Nat Prod, 2011)", "key": {"Aspergillus flavus [1]": {"test_system": "Aspergillus flavus", "assay": "Antifungal activity against Aspergillus flavus NRRL 6541 by agar disk diffusion assay", "assay_type": "functional, organism-based"}, "Fusarium verticillioides [2]": {"test_system": "Fusarium verticillioides", "assay": "Antifungal activity against Gibberella moniliformis NRRL 25457 by agar disk diffusion assay", "assay_type": "functional, organism-based"}, "Bacillus subtilis [3]": {"test_system": "Bacillus subtilis", "assay": "Antibacterial activity against Bacillus subtilis ATCC 6051 at 25 ug/disk by agar disk diffusion assay", "assay_type": "functional, organism-based"}, "Staphylococcus aureus [4]": {"test_system": "Staphylococcus aureus", "assay": "Antibacterial activity against Staphylococcus aureus ATCC 29213 at 25 ug/disk by agar disk diffusion assay", "assay_type": "functional, organism-based"}, "Bacillus subtilis [5]": {"test_system": "Bacillus subtilis", "assay": "Antibacterial activity against Bacillus subtilis ATCC 6051 at 100 ug/disk by agar disk diffusion assay", "assay_type": "functional", "details": "read-out: IZ"}, "Staphylococcus aureus [6]": {"test_system": "Staphylococcus aureus", "assay": "Antibacterial activity against Staphylococcus aureus ATCC 29213 at 100 ug/disk by agar disk diffusion assay", "assay_type": "functional", "details": "read-out: IZ"}, "Aspergillus flavus [7]": {"test_system": "Aspergillus flavus", "assay": "Antifungal activity against Aspergillus flavus NRRL 6541 up to 25 ug/ml by agar disk diffusion assay", "assay_type": "functional, organism-based"}, "Aspergillus flavus [8]": {"test_system": "Aspergillus flavus", "assay": "Antifungal activity against Aspergillus flavus NRRL 6541 at 200 ug/disk by agar disk diffusion assay", "assay_type": "functional", "details": "read-out: IZ"}, "Fusarium verticillioides [9]": {"test_system": "Fusarium verticillioides", "assay": "Antifungal activity against Gibberella moniliformis NRRL 25457 at 200 ug/disk by agar disk diffusion assay", "assay_type": "functional", "details": "read-out: IZ"}, "Candida albicans": {"test_system": "Candida albicans", "assay": "Antimicrobial activity against Candida albicans ATCC 14053 at 100 ug/disk by agar disk diffusion assay", "assay_type": "functional", "details": "read-out: IZ"}, "Escherichia coli": {"test_system": "Escherichia coli", "assay": "Antibacterial activity against Escherichia coli ATCC 25922 at 100 ug/disk by agar disk diffusion assay", "assay_type": "functional", "details": "read-out: IZ"}}, "note": "Calls of active or inactive are those of the source. The calls are words filed in the database; no cut-off is given here.", "data": [{"compound": "NYSTATIN", "values": [{"measurement": "MIC", "setting": "Aspergillus flavus [1]", "value": 10, "unit": "µg/mL"}, {"measurement": "MIC", "setting": "Fusarium verticillioides [2]", "value": 10, "unit": "µg/mL"}]}, {"compound": "GENTAMICIN SULFATE", "values": [{"measurement": "inhibition zone (IZ)", "setting": "Bacillus subtilis [3]", "value": 20, "unit": "mm"}, {"measurement": "inhibition zone (IZ)", "setting": "Staphylococcus aureus [4]", "value": 20, "unit": "mm"}]}, {"compound": "Cc1cc2c(c(O)c1-c1c(C)cc3c(c1O)C(=O)C1=C(O)C=C[C@H](O)[C@]1(C)O3)C(=O)C1=C(O)C=C[C@H](O)[C@]1(C)O2", "note": "[PHOMALEVONE A]", "values": [{"measurement": "zone of inhibition at 100 µg/disc", "setting": "Bacillus subtilis [5]", "value": 36, "unit": "mm"}, {"measurement": "zone of inhibition at 100 µg/disc", "setting": "Staphylococcus aureus [6]", "value": 23, "unit": "mm"}]}, {"compound": "Cc1cc2c(c(O)c1-c1c(C)cc3c(c1O)C(=O)C1=C(O)C=C[C@H](O)[C@]1(C)O3)C(=O)C1=C(O)C=CC(=O)[C@]1(C)O2", "note": "[PHOMALEVONE C]", "values": [{"measurement": "Activity", "setting": "Aspergillus flavus [7]", "value": "inactive"}, {"measurement": "zone of inhibition at 200 µg/disc", "setting": "Aspergillus flavus [8]", "value": 10, "unit": "mm"}, {"measurement": "IC50", "setting": "Aspergillus flavus [1]", "value": 4, "unit": "µg/mL"}, {"measurement": "zone of inhibition at 100 µg/disc", "setting": "Bacillus subtilis [5]", "value": 34, "unit": "mm"}, {"measurement": "zone of inhibition at 100 µg/disc", "setting": "Staphylococcus aureus [6]", "value": 22, "unit": "mm"}, {"measurement": "MIC", "setting": "Fusarium verticillioides [2]", "value": 10, "unit": "µg/mL"}, {"measurement": "zone of inhibition at 200 µg/disc", "setting": "Fusarium verticillioides [9]", "value": 10, "unit": "mm"}]}, {"compound": "Cc1cc(O)c(C(=O)c2c(O)ccc(O)c2C)c(O)c1-c1c(C)cc(O)c(C(=O)c2c(O)ccc(O)c2C)c1O", "note": "[PHOMALEVONE B]", "values": [{"measurement": "zone of inhibition at 100 µg/disc", "setting": "Candida albicans", "value": 18, "unit": "mm"}, {"measurement": "zone of inhibition at 100 µg/disc", "setting": "Escherichia coli", "value": 18, "unit": "mm"}, {"measurement": "zone of inhibition at 100 µg/disc", "setting": "Bacillus subtilis [5]", "value": 38, "unit": "mm"}, {"measurement": "zone of inhibition at 100 µg/disc", "setting": "Staphylococcus aureus [6]", "value": 26, "unit": "mm"}]}]}
